Laboratory results as given in patent US9751867B2 (Syngenta Participations AG, priority 2014, dated 2017).
Read-outs that look alike come from different tables or passages of the source.

How the values were obtained:
NK Falkone corn seeds = experiment: Corn seed germination under cold stress (15° C.); type: in vivo; details: for change in vivo at 50 µM: rate 50 μM; for change in vivo at 250 µM: rate 250 μM
Method: The effect of compounds of Formula (I) on the germination of NK Falkone corn seeds under cold stress was evaluated as follows.
NK Falkone corn seeds were sorted by size using 2 sieves, one excluding very big seeds and the other with round holes of 8 to 9 mm diameter. The seeds retained by the latter sieve are used for the germination test.
The corn seeds were placed in 24 well plates (each plate is considered as one experimental unit or replicate). Germination is initiated by the addition of 250 μl of distilled water containing 0.5% DMSO per well as a mean for compound solubilization. 8 replicates (ie, 8 plates) were used for each treatment characterization. Plates were sealed using seal foil (Polyolefin Art. Nr. 900320) from HJ-BIOANALYTIK. All plates were placed horizontally on trolleys in a climatic chamber at 15° C. or 23° C. in complete darkness. The experiment is laid out in a completely randomized design in climatic chamber with 75% Relative Humidity. Foils are pierced, one hole per well using a syringe after 72 hours for experiments performed at 15° C. and after 24 hours for experiments performed at 23° C.
Germination is followed over time by taking photographs at different time points. Image analysis is done automatically with a macro developed using the Image J software. A dynamic analysis of germination is carried out by fitting a logistic curve to the relationship between % germination and time for each plate (T50 parameter).
T50 is the time needed for half the seed population to be germinated. A negative value of T50 represents a faster germination rate. The mean of T50 parameters is calculated for the 8 replicates and the kinetic parameter is determined for each germination curve. Data in bold indicate germination enhancing statistically significant differences between treated seeds and control (empty vehicle treated) T50 values (P<0.05) as outlined in Table 7.

[1] = tested on: Orobanche cumana Wallr. seeds; experiment: Orobanche seed germination; type: in vivo; details: preconditioned O. cumana seeds, 10 days at 20° C. in the dark, N = 5 × 100 seeds, control (0.01% DMSO) 0.75% germination
Method: The effect of the compounds of Formula (I) on the germination of Orobanche cumana Wallr. seeds was evaluated on glass fibre filter paper (GFFP) in petri dishes. Seeds were pre-conditioned at moisture and suitable temperature to become responsive to the specific chemical germination stimulants.
Test compounds were dissolved in DMSO (10 000 mgl^−1) and stored at room temperature in a desiccator with desiccants. The stock solutions were dissolved with sterile deionised water to the appropriate final test concentration.
Seeds of O. cumana race ‘F’ were collected from sunflower fields in Manzanilla (Seville, Spain) in 2008 (seed lot IN153) and stored at room temperature. To separate seeds from heavy organic debris, a modified sucrose floatation technique as described by Hartman & Tanimonure (Plant Disease (1991), 75, 494) was applied. Seeds were filled into a separation funnel and stirred in water. When seeds floated to the surface, the water fraction containing heavy debris was discarded. Seeds were re-suspended in 2.5 M sucrose solution (specific gravity of 1.20) and heavy debris was allowed to settle down for 60 minutes. After removing debris, seeds were disinfected in 1% sodium hypochlorite solution and 0.025% (v/v) Tween 20 for 2 minutes. The seeds were decanted onto two layers of cheese cloth, rinsed with sterile deionised water and re-suspended in sterile deionised water. 2 mL of the seed suspension containing approximately 150 to 400 seeds was spread evenly on two layers of sterile glass fiber filter paper disc ([…]) in Petri dishes ( ? 9 cm). After wetting the discs with 3 mL sterile deionised water, petri dishes were sealed with parafilm. Seeds were incubated for 10 days at 20° C. in the dark for seed conditioning. The upper disc with conditioned seeds was briefly dried, transferred to a petri dish lined with a dry GFFP disc, and wetted with 6 mL of the appropriate test solution. The compounds of Formula (I) were tested at concentrations of 0.01, 0.1, and 1 mg/L. The strigolactone analogue GR24 (commercially available as a mixture of isomers) was included as positive control and 0.01% DMSO as negative control. All treatments were tested in five replicates. Seeds were re-incubated at 20° C. in the dark and examined for germination 10 days later.
The radicles of germinated seeds were stained for 5 minutes with blue ink (PELIKAN #4001, Germany) in 5% acetic acid according to Long et al (Seed Science Research (2008), 18, 125). After staining, seeds were photographed using a camera stand mounted with a digital SLR camera (Canon EOS 5D). Germination of 100 seeds per replicate was evaluated on digital images. Seeds were considered germinated when the radicle protruded from the seed coat.

[2] = Zea mays, rate 2 μM, 15° C., negative value = faster germination, control 0.5% DMSO in water, read-out: T50 (% vs control)
[3] = Zea mays, rate 10 μM, 15° C., negative value = faster germination, control 0.5% DMSO in water, read-out: T50 (% vs control)
[4] = Zea mays, 15° C., negative value = faster germination, control 0.5% DMSO in water, read-out: T50 (% vs control)
[5] = Zea mays, rate 1 μM, 15° C., negative value = faster germination, control 0.5% DMSO in water, read-out: T50 (% vs control)
[6] = Zea mays, rate 5 μM, 15° C., negative value = faster germination, control 0.5% DMSO in water, read-out: T50 (% vs control)
[7] = Zea mays, rate 25 μM, 15° C., negative value = faster germination, control 0.5% DMSO in water, read-out: T50 (% vs control)
[8] = Zea mays, read-out: T50 (% vs control)

In the case of `CC1=C[C@H](O/C=C2/C(=O)O[C@@H]3c4ccccc4C[C@H]23)OC1=O` [GR-24, reference compound], the “T50 (% vs control)” value (NK Falkone corn seeds; rate 0.08 μM, 15° C., negative value = faster germination, control 0.5% DMSO in water) is reported as 0.1 % vs control, the “T50 (% vs control)” value (NK Falkone corn seeds; rate 0.4 μM, 15° C., negative value = faster germination, control 0.5% DMSO in water) is reported as −2 % vs control and the “T50 (% vs control)” value (NK Falkone corn seeds; rate 2 μM, 15° C., negative value = faster germination, control 0.5% DMSO in water) is reported as −0.6 % vs control. For the same compound, the “T50 (% vs control)” value (NK Falkone corn seeds; rate 10 μM, 15° C., negative value = faster germination, control 0.5% DMSO in water) was −2.4 % vs control.

With `CC1=CC(O/C=C2/C(=O)N(C(=O)OC(C)(C)C)C3c4ccccc4CC23)N(CC(F)(F)F)C1=O` (centres unmarked) [Ia-7, tert-butyl (3E)-3-[(4-methyl-5-oxo-1-(2,2,2-trifluoroethyl)-2H-pyrrol-2-yl)oxymethylene]-2-oxo-4,8b-dihydro-3aH-indeno[1,2-b]pyrrole-1-carboxylate] the “Germination (%)” value ([1]; 0.01 mg/L) was 34% and the “Germination (%)” value ([1]; 0.1 mg/L) was 8%.

Work on `CC1=CC(O/C=C2/C(=O)NC3c4ccccc4CC23)N(c2ccccc2)C1=O` (centres unmarked) [Ib-2, (3E)-3-[(4-methyl-5-oxo-1-phenyl-2H-pyrrol-2-yl)oxymethylene]-1,3a,4,8b-tetrahydroindeno[1,2-b]pyrrol-2-one] yielded a change in vivo at 0.4 µM (NK Falkone corn seeds; Zea mays, rate 0.4 μM, 15° C., negative value = faster germination, control 0.5% DMSO in water, read-out: T50 (% vs control)) of -0.4%, a change in vivo at 2 µM (NK Falkone corn seeds; [2]) of -2.5% and a change in vivo at 10 µM (NK Falkone corn seeds; [3]) of -6.1%. The change in vivo at 50 µM (NK Falkone corn seeds; [4]) was -6.2%.

With `CON1C(=O)C(C)=CC1O/C=C1/C(=O)NC2c3ccccc3CC12` (centres unmarked) [Ib-3, (3E)-3-[(4-methyl-5-oxo-1-methoxy-2H-pyrrol-2-yl)oxymethylene]-1,3a,4,8b-tetrahydroindeno[1,2-b]pyrrol-2-one] the change in vivo at 2 µM (NK Falkone corn seeds; [2]) was -4%, the change in vivo at 10 µM (NK Falkone corn seeds; [3]) was 3.4% and the change in vivo at 50 µM (NK Falkone corn seeds; [4]) was -3.8%. It also gave a change in vivo at 250 µM (NK Falkone corn seeds; [4]) of -5.5%.

In the case of `CC1=CC(O/C=C2/C(=O)NC3c4ccccc4CC23)N(C2CC2)C1=O` (centres unmarked) [Ib-5, (3E)-3-[(4-methyl-5-oxo-1-cyclopropyl-2H-pyrrol-2-yl)oxymethylene]-1,3a,4,8b-tetrahydroindeno[1,2-b]pyrrol-2-one], the “Germination (%)” value ([1]; 0.01 mg/L) is reported as 68%, the “Germination (%)” value ([1]; 0.1 mg/L) is reported as 73% and the change in vivo at 2 µM (NK Falkone corn seeds; [2]) is reported as -0.8%. It also gave a change in vivo at 10 µM (NK Falkone corn seeds; [3]) of -4.3%, a change in vivo at 50 µM (NK Falkone corn seeds; [4]) of -3.9% and a change in vivo at 250 µM (NK Falkone corn seeds; [4]) of -5.8%.

`CC1=CC(O/C=C2/C(=O)NC3c4ccccc4CC23)N(CC(F)(F)F)C1=O` (centres unmarked) [Ib-7, (3E)-3-[(4-methyl-5-oxo-1-(2,2,2-trifluoroethyl)-2H-pyrrol-2-yl)oxymethylene]-1,3a,4,8b-tetrahydroindeno[1,2-b]pyrrol-2-one] was tested, and the “Germination (%)” value ([1]; 0.01 mg/L) was 46%, the “Germination (%)” value ([1]; 0.1 mg/L) was 26% and the change in vivo at 2 µM (NK Falkone corn seeds; [2]) was 1.5%. The change in vivo at 10 µM (NK Falkone corn seeds; [3]) was -3%, the change in vivo at 50 µM (NK Falkone corn seeds; [4]) was -3.3% and the change in vivo at 250 µM (NK Falkone corn seeds; [4]) was -4.5%.

`CC1=CC(O/C=C2/C(=O)NC3c4ccccc4CC23)N(c2ccc(F)cc2)C1=O` (centres unmarked) [Ib-8, (3E)-3-[(4-methyl-5-oxo-1-(4-fluoro-phenyl)-2H-pyrrol-2-yl)oxymethylene]-1,3a,4,8b-tetrahydroindeno[1,2-b]pyrrol-2-one] was tested, and the change in vivo at 1 µM (NK Falkone corn seeds; [5]) was -2.6%, the change in vivo at 5 µM (NK Falkone corn seeds; [6]) was -2.8% and the change in vivo at 25 µM (NK Falkone corn seeds; [7]) was 2%. For the same compound, the change in vivo at 125 µM (NK Falkone corn seeds; Zea mays, rate 125 μM, 15° C., negative value = faster germination, control 0.5% DMSO in water, read-out: T50 (% vs control)) was -2.3%.

For `CC1=CC(O/C=C2/C(=O)NC3c4ccccc4CC23)N(c2cccc(F)c2)C1=O` (centres unmarked) [Ib-9, (3E)-3-[(4-methyl-5-oxo-1-(3-fluoro-phenyl)-2H-pyrrol-2-yl)oxymethylene]-1,3a,4,8b-tetrahydroindeno[1,2-b]pyrrol-2-one], the change in vivo at 0.2 µM (NK Falkone corn seeds; Zea mays, rate 0.2 μM, 15° C., negative value = faster germination, control 0.5% DMSO in water, read-out: T50 (% vs control)) was -0.8%, the change in vivo at 1 µM (NK Falkone corn seeds; [5]) was -4.8% and the change in vivo at 5 µM (NK Falkone corn seeds; [6]) was -5.6%. It also gave a change in vivo at 25 µM (NK Falkone corn seeds; [7]) of -5.2%.

Work on `CC1=CC(O/C=C2/C(=O)NC3c4ccccc4CC23)N(c2cc(C(F)(F)F)cc(C(F)(F)F)c2)C1=O` (centres unmarked) [Ib-13, (3E)-3-[(4-methyl-5-oxo-1-(3,5-bistrifluoromethyl-phenyl)-2H-pyrrol-2-yl)oxymethylene]-1,3a,4,8b-tetrahydroindeno[1,2-b]pyrrol-2-one] yielded a change in vivo at 0.2 µM (NK Falkone corn seeds; [8]) of 1%, a change in vivo at 1 µM (NK Falkone corn seeds; [8]) of -3.6% and a change in vivo at 5 µM (NK Falkone corn seeds; [8]) of -3.6%. The change in vivo at 25 µM (NK Falkone corn seeds; [8]) was -2.7%.
